Laboratory results taken from patent US20260273028A1, “PEROXIDASE COMPOSITIONS CONTAINING IMPROVED ENHANCING AGENTS” (FLEN HEALTH PHARMA NV, priority 2022, published 2026).

Key:
[1] = test system: C. albicans (ATCC®10231™); experiment: Microbial challenge testing in alginogel with GOX+LPO; type: cell-based; conditions: for antimicrobial activity of enhancing candidate only against C. albicans: alginogel without enzymes, highest concentration tested; for reduction in absolute C. albicans counts compared to reference (enzymes only): alginogel, 0.0075% GOX+LPO; for reduction in absolute C. albicans counts compared to guaiacol in the same concentration: alginogel with GOX+LPO, enhancer 0.0005%
Description: (§1) To determine the ability of an antimicrobial agent to elicit an antimicrobial preserving efficacy in a gel environment, a microbiological challenge test can be performed. Here, the antimicrobial agent is a combination of the natural enzymes GOX+LPO. […] Microbial challenge testing was performed according to the method described in the European Pharmacopoeia current version chapter 5.1.3 ‘Efficacy of antimicrobial preservation’, but with adapted time points (0, 10, 20, 30, 40, 50, 60, 70 and 80 min instead of 0, 2, 7, 14 and 28 days). In brief, for every enhancing agent to be evaluated, a lab-scale alginogel (based on the Flaminal® formulation, but without the original enhancer guaiacol) including 0.0075% GOX+LPO (1:1) was prepared according to standard practices. Enhancing agents were added to the alginogel in a final concentration ranging from 0.01 to 0,00025% (v/w). As a reference, an alginogel including 0.0075% GOX+LPO (1:1) without the addition of any enhancing agent was included (designated as: enzymes only). As a control, an alginogel without both GOX+LPO (1:1) enzyme solution and enhancing agent (designated as: empty gel) as well as an alginogel only containing the enhancing agent only (designated as: enhancing candidate only) were included. After preparation, a homogenous sample of 10 g was transferred into a 50 ml conical tube for each alginogel to be evaluated and microorganism to be tested. For each test microorganism, including S. aureus (ATCC®6538™), P. aeruginosa (ATCC®9027™), C. albicans (ATCC®10231™) and A. niger (ATCC®16404 ™), a microbial suspension of about 10^8 CFU/ml was prepared in sterile diluent (buffered sodium chloride-peptone solution). Then, the 50 ml conical tubes containing the alginogel samples to be evaluated were inoculated with 100 μl of the designated inoculum. At the start (time point 0) and after 0, 10, 20, 30, 40, 50, 60, 70 and 80 min, the number of viable microorganisms per gram product (expressed as CFU/g) was determined by transferring a sample of 0.5 g of the product into a 15 ml conical tube containing 4.5 ml of sterile diluent and applying general dilution and plate count techniques. For each combination evaluated, this test was repeated at least 1-3 times. The collected data were further analyzed in MS Excel. Mean absolute counts (expressed as log CFU/g) were visualized in a graph.

[2] = test system: P. aeruginosa (ATCC®9027™); experiment: as above; type: cell-based; conditions: for antimicrobial activity of enhancing candidate only against P. aeruginosa: alginogel without enzymes, highest concentration tested; for reduction in absolute P. aeruginosa counts compared to reference (enzymes only): alginogel, 0.0075% GOX+LPO; for reduction in absolute P. aeruginosa counts compared to guaiacol in the same concentration: alginogel with GOX+LPO, enhancer 0.0005%
Description: as §1

A. niger (ATCC®16404 ™) = experiment: as above; type: cell-based; conditions: for reduction in absolute A. niger counts compared to guaiacol in the same concentration: alginogel with GOX+LPO; for antimicrobial activity of enhancing candidate only against A. niger: alginogel without enzymes, highest concentration tested; for reduction in absolute A. niger counts compared to reference (enzymes only): alginogel, 0.0075% GOX+LPO
Description: as §1

[3] = exemplary values; cited from earlier work
[4] = test system: Staphylococcus aureus ATCC® 6538™; experiment: MIC determination, broth microdilution, GOX+LPO with potentiator candidate; type: cell-based; conditions: S. aureus
Description: (§2) The minimum inhibitory concentration (MIC) is defined as the lowest concentration of an antimicrobial agent that results in a complete inhibition of microbial growth (determined via visual evaluation or absorbance measurements) after overnight incubation. This endpoint measurement is used to define the microbial susceptibility towards an antimicrobial agent. Here, the antimicrobial agent is a combination of the natural enzymes GOX+LPO.
(§3) To determine the MIC of the described combinations, a classical broth microdilution assay was used to determine the susceptibility of a series of microbes commonly detected in infected wounds, including (a) the Gram-positive bacterium Staphylococcus aureus ATCC® 6538™ (results shown below), (b) the Gram-negative bacterium Pseudomonas aeruginosa ATCC®9027™ (results shown below), (c) the yeast Candida albicans ATCC®10231™ (results shown below), and (d) the fungus Aspergillus niger ATCC®16404™ (results shown below). In brief, a […] serial dilution of the enzymatic GOX+LPO solution was prepared in a transparent, flat-bottomed 96-well test plate with final concentrations ranging from 0.005 to 0.00000977% (v/v). To each well, a fixed volume of the enzymatic substrate containing 3,3% (w/v) glucose and 0,084% (w/v) potassium iodide, as well as the microbial inoculum with an OD600 of 0.1 was added. In the event the enzyme combination was evaluated in the presence of a potentiator candidate, the latter was added together with the enzymatic substrate in a final concentration ranging from 100 to 0,00125% (v/v). For each combination evaluated, a blank (no addition of microbial inoculum) was included. Positive (inoculum only) and negative (background solution only) were included to evaluate the performance of the test and to select the enzymatic GOX+LPO concentration at which no microbial growth is detected (i.e., absorbance equal to that of the background solution only). Then, the 96-well test plate was incubated for 24 hours at 37° C. (S. aureus, P. aeruginosa and C. albicans) or 25° C. (A. niger). After incubation, the absorbance of each well was measured using a plate spectrophotometer (Spectramax ID3, Molecular Devices). For each combination evaluated, this test was repeated at least 5 times. The collected data were further analyzed in MS Excel. Mean absorbance data were visualized in a table format in which the MIC was highlighted.

[5] = test system: Aspergillus niger ATCC®16404™; experiment: as above; type: cell-based; conditions: A. niger
Description: as §2, §3

[6] = test system: Pseudomonas aeruginosa ATCC®9027™; experiment: as above; type: cell-based; conditions: P. aeruginosa
Description: as §2, §3

Compound | antimicrobial activity of enhancing candidate only against C. albicans [1] | reduction in absolute C. albicans counts compared to reference (enzymes only) ([1]; enhancer 0.00125%) | reduction in absolute C. albicans counts compared to reference (enzymes only) ([1]; enhancer 0.0025%) | antimicrobial activity of enhancing candidate only against P. aeruginosa [2] | reduction in absolute P. aeruginosa counts compared to reference (enzymes only) ([2]; enhancer 0.0025%) | reduction in absolute A. niger counts compared to guaiacol in the same concentration (A. niger (ATCC®16404 ™); enhancer 0.0005%) | antimicrobial activity of enhancing candidate only against A. niger (A. niger (ATCC®16404 ™)) | reduction in absolute A. niger counts compared to reference (enzymes only) (A. niger (ATCC®16404 ™); enhancer 0,0025-0,0005%) | LogP (octanol/water partition coefficient) [3] | MIC: GOX+LPO enzyme solution needed to completely inhibit growth ([6]; enhancer 0,1%) | increase in MIC compared to reference ([6]; enhancer 0,1%) [×] | MIC: GOX+LPO enzyme solution needed to completely inhibit growth ([6]; enhancer 1%) | increase in MIC compared to reference ([6]; enhancer 1%) [×] | reduction in absolute C. albicans counts compared to guaiacol in the same concentration [1] | reduction in absolute C. albicans counts compared to reference (enzymes only) ([1]; enhancer 0,00125-0,0005%) | reduction in absolute P. aeruginosa counts compared to guaiacol in the same concentration [2] | reduction in absolute P. aeruginosa counts compared to reference (enzymes only) ([2]; enhancer 0.00125-0.0005%) | reduction in absolute A. niger counts compared to reference (enzymes only) (A. niger (ATCC®16404 ™); enhancer 0.0025%) | MIC: GOX+LPO enzyme solution needed to completely inhibit growth ([5]; enhancer 1%-0.01%) | increase in MIC compared to reference ([5]; enhancer 1%-0.01%) [×] | other results
NC(=O)C[C@H](N)C(=O)O [Asparagine, asparagine] | no antimicrobial activity | faster complete reduction | immediate entire reduction | no antimicrobial activity | immediate entire reduction | faster complete reduction | no antimicrobial activity | faster complete reduction | LogP = −3.82 | 0.000625 % (v/v) | 2 | 0.000156 % (v/v) | 8 | – | – | – | – | – | – | – | reduction in absolute P. aeruginosa counts compared to reference (enzymes only) ([2]; enhancer 0,00125%): faster complete reduction; MIC: GOX+LPO enzyme solution needed to completely inhibit growth ([4]; enhancer 0.5% to 0.01%): 0.0000391 % (v/v); increase in MIC compared to reference or guaiacol solution ([4]; enhancer 0.5% to 0.01%): 2 ×; MIC: GOX+LPO enzyme solution needed to completely inhibit growth ([5]; enhancer 1%-0.05%): 0.000156 % (v/v); increase in MIC compared to reference ([5]; enhancer 1%-0.05%): 2 ×
NC(=O)CC[C@H](N)C(=O)O [Glutamine, glutamine] | no antimicrobial activity | – | immediate entire reduction | no antimicrobial activity | immediate entire reduction | – | no antimicrobial activity | – | LogP = −3.15 | 0.000625 % (v/v) | 2 | 0.000156 % (v/v) | 8 | faster complete reduction | faster complete reduction | faster complete reduction | faster complete reduction | faster complete reduction | 0.000156 % (v/v) | 2 | reduction in absolute A. niger counts compared to guaiacol in the same concentration (A. niger (ATCC®16404 ™); enhancer 0.0025%): faster complete reduction; MIC: GOX+LPO enzyme solution needed to completely inhibit growth ([4]; enhancer 1% to 0.01%): 0.0000391 % (v/v); increase in MIC compared to reference or guaiacol solution ([4]; enhancer 1% to 0.01%): 2 ×
CC[C@H](C)[C@H](N)C(=O)O [Isoleucine, isoleucine] | no antimicrobial activity | – | immediate entire reduction | no antimicrobial activity | immediate entire reduction | faster complete reduction | no antimicrobial activity | faster complete reduction | LogP = −1.72 | 0.000625 % (v/v) | 2 | 0.000156 % (v/v) | 8 | faster complete reduction | faster complete reduction | faster complete reduction | faster complete reduction | – | – | – | MIC: GOX+LPO enzyme solution needed to completely inhibit growth ([4]; enhancer 0.0025% to 0.00125%): 0.0000391 % (v/v); increase in MIC compared to reference or guaiacol solution ([4]; enhancer 0.0025% to 0.00125%): 2 ×; MIC: GOX+LPO enzyme solution needed to completely inhibit growth ([4]; enhancer 0.5% to 0.005%): 0.0000391 % (v/v); increase in MIC compared to reference or guaiacol solution ([4]; enhancer 0.5% to 0.005%): 2 ×; MIC: GOX+LPO enzyme solution needed to completely inhibit growth ([5]; enhancer 1%-0.005%): 0.000156 % (v/v); increase in MIC compared to reference ([5]; enhancer 1%-0.005%): 2 ×
O=C(O)[C@@H]1CCCN1 [Proline, proline] | no antimicrobial activity | faster complete reduction | immediate entire reduction | no antimicrobial activity | immediate entire reduction | faster complete reduction | no antimicrobial activity | – | LogP = −2.54 | – | – | – | – | faster complete reduction | – | faster complete reduction | faster complete reduction | faster complete reduction | 0.000156 % (v/v) | 2 | MIC: GOX+LPO enzyme solution needed to completely inhibit growth ([4]; enhancer 0.01%): 0.0000195 % (v/v); increase in MIC compared to reference or guaiacol solution ([4]; enhancer 0.01%): 4 ×; MIC: GOX+LPO enzyme solution needed to completely inhibit growth ([4]; enhancer 10%): 0.0000391 % (v/v); increase in MIC compared to reference or guaiacol solution ([4]; enhancer 10%): 2 ×; MIC: GOX+LPO enzyme solution needed to completely inhibit growth ([6]; enhancer 0.0025-0.00125%): 0.000625 % (v/v); increase in MIC compared to reference or guaiacol solution ([6]; enhancer 0.0025-0.00125%): 2 ×; MIC: GOX+LPO enzyme solution needed to completely inhibit growth ([6]; enhancer 0.01-0.005%): 0.000625 % (v/v); increase in MIC compared to reference or guaiacol solution ([6]; enhancer 0.01-0.005%): 2 ×
